Where two headings read alike, the source gives them in different places. Numbered stars: 1 amine (or outer) side, 2 acyl side, 3 side chain; on linkers, the order of the positions; unused ones are H or OH. Square brackets hold non-standard residues; d marks the D form. Peptide text beside a SMILES is read from it. * marks the point of attachment. X9 = O=C([C@@H]1CN(P(=O)(OCc2ccccc2)OCc2ccccc2)CCN1[*:1])[*:2]; X2 = O=C(OCc1ccccc1)N1CCN([*:1])[C@H](C(=O)[*:2])C1; dPhe(4-NH2) = Nc1ccc(C[C@@H](N)C(=O)O)cc1; d2Nal = N[C@H](Cc1ccc2ccccc2c1)C(=O)O; Ethyl(2-morpholino) = C1CN(CC*)CCO1; dNMeY = CN[C@H](Cc1ccc(O)cc1)C(=O)O; d(hPhe) = N[C@H](CCc1ccccc1)C(=O)O; dNMeF = CN[C@H](Cc1ccccc1)C(=O)O; hPhe = N[C@@H](CCc1ccccc1)C(=O)O; X7 = C[N+]12CCC(CC1)C(C(=O)*)C2; dOrn = NCCC[C@@H](N)C(=O)O; Pip = O=C(O)[C@@H]1CCCCN1; dPip = O=C(O)[C@H]1CCCCN1; Nle = CCCC[C@H](N)C(=O)O; dNMeA = CN[C@H](C)C(=O)O; Boc = CC(C)(C)OC(=O)*; Me2Gly = CN(C)CC(=O)*; Bn = c1ccc(C*)cc1; OtBu = CC(C)(C)O*; tBu = CC(C)(C)*
Tests used:
AVP-V1 sites = biological target: T1, AVP-V1 sites (Rattus norvegicus, UniProt P30560); assay: [^3 H]AVP binding to crude membrane preparation of male rat liver (AVP-V1 sites)
T1 construct: crude membrane preparation of male rat liver (AVP-V1 sites); from tissue; host or cells: male rat liver, crude membranes
T1 sequence (P30560 whole entry): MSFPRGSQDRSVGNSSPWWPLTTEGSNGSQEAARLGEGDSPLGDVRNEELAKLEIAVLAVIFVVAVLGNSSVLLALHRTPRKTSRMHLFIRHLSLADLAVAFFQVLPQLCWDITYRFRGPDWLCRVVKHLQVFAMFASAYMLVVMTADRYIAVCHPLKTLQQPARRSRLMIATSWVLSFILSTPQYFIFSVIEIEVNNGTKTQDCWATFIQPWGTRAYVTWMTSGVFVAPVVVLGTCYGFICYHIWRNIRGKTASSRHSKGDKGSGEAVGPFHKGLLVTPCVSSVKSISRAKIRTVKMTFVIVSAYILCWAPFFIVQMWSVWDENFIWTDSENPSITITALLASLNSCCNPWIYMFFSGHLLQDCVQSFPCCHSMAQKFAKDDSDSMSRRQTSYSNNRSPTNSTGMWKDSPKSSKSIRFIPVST
Procedure: (§1) Nonspecific binding (5-10% of the total binding) was determined using 10 μM unlabeled AVP, and the binding reaction was terminated by filtration as described above for the [^3 H]OT binding assay.

uterine OT receptors = biological target: T2, uterine OT receptors (Rattus norvegicus, UniProt P70536); assay: [^3 H]OT binding to uterine OT receptors, crude membrane preparation of uteri from DES-treated rats; conditions: for inhibition at 1 µM: @ 1,000 (nM)
T2 construct: from tissue; host or cells: uterus of DES-treated rats, crude membranes
T2 sequence (P70536 1-388): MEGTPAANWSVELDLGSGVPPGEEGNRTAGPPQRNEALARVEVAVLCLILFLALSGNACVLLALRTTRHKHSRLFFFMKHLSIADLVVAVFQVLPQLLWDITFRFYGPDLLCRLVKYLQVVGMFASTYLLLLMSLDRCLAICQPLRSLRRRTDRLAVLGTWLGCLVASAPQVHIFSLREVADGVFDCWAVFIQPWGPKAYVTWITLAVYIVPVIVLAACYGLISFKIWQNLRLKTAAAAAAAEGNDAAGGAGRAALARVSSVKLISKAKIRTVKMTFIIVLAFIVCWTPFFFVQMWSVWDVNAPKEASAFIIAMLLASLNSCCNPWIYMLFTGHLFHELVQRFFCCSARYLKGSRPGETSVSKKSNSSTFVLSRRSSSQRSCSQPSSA
Procedure: Competition studies were conducted at equilibrium (60 minutes; 22° C.) using 1 nM [^3 H]OT in the following assay buffer: 50 mM Tris-HCl, 5 mM MgCl2, and 0.1% BSA, pH 7.4.

AVP-V2 sites = biological target: T3, AVP-V2 sites (Rattus norvegicus, UniProt Q00788); assay: [^3 H]AVP binding to crude membrane preparation of male rat kidney medulla (AVP-V2 sites)
T3 construct: male rat liver (AVP-V1 sites) or kidney medulla (AVP-V2 sites); from tissue; host or cells: male rat kidney medulla, crude membranes
T3 sequence (Q00788 whole entry): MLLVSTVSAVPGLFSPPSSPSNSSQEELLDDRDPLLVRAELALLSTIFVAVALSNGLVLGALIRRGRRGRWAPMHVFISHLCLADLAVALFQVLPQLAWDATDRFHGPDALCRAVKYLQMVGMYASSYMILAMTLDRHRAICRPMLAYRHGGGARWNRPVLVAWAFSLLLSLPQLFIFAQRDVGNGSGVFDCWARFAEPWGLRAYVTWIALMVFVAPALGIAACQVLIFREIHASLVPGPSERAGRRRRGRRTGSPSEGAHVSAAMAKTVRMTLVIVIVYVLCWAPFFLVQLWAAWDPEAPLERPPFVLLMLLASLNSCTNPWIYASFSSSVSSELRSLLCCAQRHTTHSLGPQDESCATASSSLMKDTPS
Procedure: as §1

[1] = Receptor Binding Results IC50 (nM) [^3 H]-AVP-V1
[2] = rat uterus membranes, 1 nM [^3 H]OT, read-out: Receptor Binding Results IC50 (nM) [^3 H]OT
[3] = Receptor Binding Results IC50 (nM) [^3 H]-AVP-V2
[4] = 1 h, read-out: [^3 H]OT: percent inhibition of radioligand at the given concentration
[5] = rat kidney medulla membranes, 2 nM [^3 H]AVP, read-out: Receptor Binding Results IC50 (nM) [^3 H]-AVP-V2
[6] = read-out: Receptor Binding Results IC50 (nM) [^3 H]-AVP-V1
[7] = 1 h, @ 100 (nM), read-out: [^3 H]OT: percent inhibition of radioligand at the given concentration

Compound: CCCC[C@@H]1NC(=O)[C@@H](Cc2c[nH]c3ccccc23)NC(=O)[C@@H]2CCCN2C(=O)[C@@H](Cc2c[nH]cn2)NC(=O)[C@@H]2CCCCN2C(=O)[C@H]2CCCCN2C1=O [Example 20, Cyclo[D-tryptophanyl-L-Norleucyl-D-pipecolyl-L-pipecolyl-D-histidyl-L-prolyl]] (cyclo([Nle][dPip][Pip][dH]P[dW]))
- IC50 (AVP-V1 sites; [1]): > 1000 nM
- IC50 (uterine OT receptors; [2]): 72 nM
- IC50 (AVP-V2 sites; [3]): > 1000 nM

Compound: CC[C@H](C)[C@@H]1NC(=O)[C@@H](C)N(C)C(=O)[C@@H]2CCCN2C(=O)[C@@H](Cc2ccccc2)N(C)C(=O)[C@@H]2CCCCN2C(=O)[C@H]2CCCCN2C1=O [Example 167, c-[N-Me-D-Alanyl-L-isoleucyl-D-pipecolyl-L-pipecolyl-N-Me-D-phenylalanyl-L-prolyl]] (cyclo(I[dPip][Pip][dNMeF]P[dNMeA]))
- IC50 (AVP-V1 sites; [1]): > 10000 nM
- inhibition at 1 µM (uterine OT receptors; [4]): 5%
- IC50 (AVP-V2 sites; [5]): > 10000 nM

Compound: CC[C@H](C)[C@@H]1NC(=O)[C@@H](CCc2ccccc2)NC(=O)[C@@H]2CCCN2C(=O)[C@@H](Cc2ccccc2)N(C)C(=O)[C@@H]2CCCCN2C(=O)[C@H]2CCCCN2C1=O [Example 165, c-[D-Homophenylalanyl-L-isoleucyl-D-pipecolyl-L-pipecolyl-N-Me-D-phenylalanyl-L-prolyl]] (cyclo(I[dPip][Pip][dNMeF]P[d(hPhe)]))
- IC50 (AVP-V1 sites; [6]): 6600 nM
- IC50 (uterine OT receptors; [2]): 150 nM
- IC50 (AVP-V2 sites; read-out: Receptor Binding Results IC50 (nM) [^3 H]-AVP-V2): 2600 nM

Compound: CC[C@H](C)[C@@H]1NC(=O)[C@@H](Cc2ccc(OC(C)(C)C)cc2)NC(=O)[C@@H]2CCCN2C(=O)[C@@H](Cc2ccccc2)N(C)C(=O)[C@H](CCCCNC(=O)OC(C)(C)C)NC(=O)[C@H]2CCCCN2C1=O [Example 144, C-[D-(O-t-Butyl)Tyrosiniyl-L-isoleucyl-D-pipecolyl-L(N-t-butyloxycarbonyl)lysyl-D-(N-methyl)phenylalanyl-L-prolyl]] (cyclo(I[dPip]K(Boc)[dNMeF]P[dY](tBu)))
- IC50 (AVP-V1 sites; [1]): > 10000 nM
- inhibition at 1 µM (uterine OT receptors; [4]): 67%
- IC50 (AVP-V2 sites; [5]): 10000 nM

Compound: CC[C@H](C)[C@@H]1NC(=O)[C@@H](Cc2ccccc2)NC(=O)[C@@H]2CCCN2C(=O)[C@@H](CCCN)NC(=O)[C@@H]2CCCCN2C(=O)[C@H]2CCCCN2C1=O [Example 39, Cyclo[D-phenylalanyl-L-isoleucyl-D-pipecolyl-L-pipecolyl-D-ornithyl-L-prolyl]] (cyclo(I[dPip][Pip][dOrn]P[dF]))
- IC50 (AVP-V1 sites; [1]): > 1000 nM
- inhibition at 0.1 µM (uterine OT receptors; [7]): 28%
- IC50 (AVP-V2 sites; [3]): > 10000 nM

Compound: CC[C@H](C)[C@@H]1NC(=O)[C@@H](Cc2ccccc2)NC(=O)[C@@H]2CCCN2C(=O)[C@@H](Cc2ccccc2)N(C)C(=O)[C@H](CC(=O)OC(C)(C)C)NC(=O)[C@H]2CCCCN2C1=O [Example 115, c-[D-Phenylalanyl-L-isoleucyl-D-pipecolyl(O-tert-butyl)-L-aspartyl-N-methyl-D-phenylalanyl-L-prolyl]] (cyclo(D(OtBu)[dNMeF]P[dF]I[dPip]))
- IC50 (AVP-V1 sites; [1]): > 10000 nM
- IC50 (uterine OT receptors; [2]): 460 nM
- IC50 (AVP-V2 sites; [5]): 10000 nM

Compound: CC[C@H](C)[C@@H]1NC(=O)[C@@H](Cc2ccccc2)NC(=O)[C@@H]2CCCN2C(=O)[C@@H](Cc2ccc(OCCN3CCOCC3)cc2)N(C)C(=O)[C@@H]2CCCCN2C(=O)[C@H]2CCCCN2C1=O [Example 50] (cyclo(I[dPip][Pip][dNMeY](Ethyl(2-morpholino))P[dF]))
- IC50 (AVP-V1 sites; [1]): > 10000 nM
- IC50 (uterine OT receptors; [2]): 310 nM
- IC50 (AVP-V2 sites; [3]): > 1000 nM

Compound: CC[C@H](C)[C@@H]1NC(=O)[C@@H](Cc2c[nH]c3ccccc23)NC(=O)[C@@H]2CCCN2C(=O)[C@@H](Cc2ccccc2)N(C)C(=O)[C@@H]2CN(P(=O)(OCc3ccccc3)OCc3ccccc3)CCN2C(=O)[C@H]2CCCCN2C1=O [Example 183, c-[D-Tryptophanyl-L-isoleucinyl-D-pipecolyl-L-piperazin-2-yl(4-dibenzylphosphoramidyl)-D-(N^α -Me)phenylalanyl-L-prolyl]] (cyclo(I[dPip][X9][dNMeF]P[dW]))
- IC50 (AVP-V1 sites; Receptor Binding Results IC50 (nM) [^3 H]-AVP-V1, rat liver membranes, 1 nM [^3 H]AVP): > 10000 nM
- inhibition at 0.1 µM (uterine OT receptors; [4]): 58%
- inhibition at 10 µM (AVP-V2 sites; 0.5 h, read-out: [^3 H]-AVP-V2: percent inhibition of radioligand at the given concentration): 71%

Compound: CC[C@H](C)[C@@H]1NC(=O)[C@@H](Cc2c[nH]c3ccccc23)NC(=O)[C@@H]2CCCN2C(=O)[C@@H](Cc2c[nH]cn2)NC(=O)[C@@H]2CCCCN2C(=O)[C@H]2CCCCN2C1=O [Example 17, C-[D-tryptophanyl-L-isolelucyl-D-pipecolyl-L-pipecolyl-D-histidyl-L-prolyl]] (cyclo(I[dPip][Pip][dH]P[dW]))
- IC50 (AVP-V1 sites; [6]): 8200 nM
- IC50 (uterine OT receptors; Receptor Binding Results IC50 (nM) [^3 H]OT): 14 nM
- IC50 (AVP-V2 sites; [5]): 5400 nM

Compound: CC[C@H](C)[C@@H]1NC(=O)[C@@H](Cc2ccccc2)NC(=O)[C@@H]2CCCN2C(=O)[C@@H](Cc2ccc(NC(=O)CN(C)C)cc2)NC(=O)[C@@H]2CCCCN2C(=O)[C@H]2CCCCN2C1=O [Example 49, Cyclo[D-phenylalanyl-L-isoleucyl-D-pipecolyl-L-pipecolyl-D-([N,N-dimethylglycyl]p-amino)phenylalanyl-L-prolyl]] (cyclo(I[dPip][Pip][dPhe(4-NH2)](Me2Gly)P[dF]))
- IC50 (AVP-V1 sites; [1]): 10000 nM
- IC50 (uterine OT receptors; [2]): 320 nM
- IC50 (AVP-V2 sites; [5]): 10000 nM

Compound: CC[C@H](C)[C@@H]1NC(=O)[C@@H](Cc2ccc3ccccc3c2)NC(=O)[C@@H]2CCCN2C(=O)[C@@H](Cc2ccccc2)N(C)C(=O)[C@@H]2CN(C(=O)OCc3ccccc3)CCN2C(=O)[C@H]2CCCCN2C1=O [Example 169, c-[D-2-Naphthylalanyl-L-isoleucinyl-D-pipecolyl-L-piperazin-2-yl(4-Cbz)-D-(Nα-methyl)-phenylalanyl-L-prolyl]] (cyclo(I[dPip][X2][dNMeF]P[d2Nal]))
- IC50 (AVP-V1 sites; [1]): > 10000 nM
- inhibition at 0.01 µM (uterine OT receptors; 1 h, @ 10 (nM), read-out: [^3 H]OT: percent inhibition of radioligand at the given concentration): 74%
- IC50 (AVP-V2 sites; [5]): 10000 nM

Compound: CC[C@H](C)[C@@H]1NC(=O)[C@@H](Cc2ccccc2)NC(=O)[C@@H]2CCCN2C(=O)[C@@H](Cc2ccc(OCc3ccccc3)cc2)N(C)C(=O)[C@@H]2CCCCN2C(=O)[C@H]2CCCCN2C1=O [Example 28, Cyclo[D-phenylalanyl-L-isoleucyl-D-pipecolyl-L-pipecolyl-D-(N^α methyl-O-Benzyl)-tyrosyl-L-prolyl]] (cyclo(I[dPip][Pip][dNMeY](Bn)P[dF]))
- IC50 (AVP-V1 sites; [1]): > 10000 nM
- inhibition at 0.1 µM (uterine OT receptors; [7]): 28%
- IC50 (AVP-V2 sites; [5]): 10000 nM

Compound: CC[C@H](C)[C@@H]1NC(=O)[C@@H](Cc2ccc3ccccc3c2)NC(=O)[C@@H]2CCCN2C(=O)[C@@H](Cc2ccccc2)N(C)C(=O)[C@H](CCCCNC(=O)C2C[N+]3(C)CCC2CC3)NC(=O)[C@H]2CCCCN2C1=O (stereo partly drawn) [Example 151, c-[D-2-Napthylalanyl-L-isoleucyl-D-pipecolyl-L-[N-(1-methyl-quinuclidinium-3-yl-carbonyl)]lysyl-D-(N-methyl)phenylalanyl-L-prolyl]] (cyclo(I[dPip]K(X7)[dNMeF]P[d2Nal]))
- IC50 (AVP-V1 sites; [6]): 390 nM
- IC50 (uterine OT receptors; [2]): 10 nM
- IC50 (AVP-V2 sites): 82 nM

Compound: CC[C@H](C)[C@@H]1NC(=O)[C@@H](Cc2ccccc2)NC(=O)[C@@H]2CCCN2C(=O)C(Cc2cccnc2)NC(=O)[C@@H]2CCCCN2C(=O)[C@H]2CCCCN2C1=O (single isomer, unassigned) [Example 10 (isomer 2), Cyclo[D-Phe-L-Ile-D-Pip-L-Pip-D,L-3-PyrAla-L-Pro]]
- IC50 (AVP-V1 sites; [1]): > 10000 nM
- IC50 (uterine OT receptors; [2]): 1000 nM
- IC50 (AVP-V2 sites; [5]): 10000 nM

Compound: CN1C(=O)[C@@H]2CCCCN2C(=O)[C@H]2CCCCN2C(=O)[C@H](CCc2ccccc2)NC(=O)[C@@H](Cc2c[nH]c3ccccc23)NC(=O)[C@@H]2CCCN2C(=O)[C@H]1Cc1ccccc1 [Example 32, Cyclo[D-trytophanyl-L-homophenylalanyl-D-pipecolyl-L-pipecolyl-D-(N^α methyl)phenylalanyl-L-prolyl]] (cyclo(P[dW][hPhe][dPip][Pip][dNMeF]))
- IC50 (AVP-V1 sites; [1]): > 10000 nM
- IC50 (uterine OT receptors; [2]): > 1000 nM
- IC50 (AVP-V2 sites; [5]): > 10000 nM
